Assay results as given in publication PMC9027509, “Modulation of Paracellular-like Drug Transport across an Artificial Biomimetic Barrier by Osmotic Stress-Induced Liposome Shrinking” (Pharmaceutics, 2022).

Experiments:
Assay type in all cases: in vitro ADME
[1] = Permeability across the lipid layer of PermeaPad calculated from Papp and Psup (Equation 3); conditions: for Permeation across lipid layer, fold higher with 50 mOsm/kg pretreatment: 50 mOsm/kg versus 300 mOsm/kg NaCl pretreatment; for Papp: not told, calculated 1/Papp=1/Plip+1/Psup
Source text: The permeation across the lipid layer (Plip) has been calculated using Equation (3) (Di Cagno et al., 2015). The inverse of each permeability constant represents the resistance. The sum of the resistance of the lipid layer and the support layer (Psup) composing the PermeaPad® barrier gives the resistance of the whole barrier. (3) 1/Papp=1/Plip+1/Psup

[2] = Permeation across PermeaPad barrier, reversed Franz cell setup, after NaCl pretreatment; conditions: for Increase of apparent permeability across the PermeaPad® barrier upon hypo-osmotic pretreatment: hypo-osmotic pretreatment (soaking in hypotonic medium); for Papp: permeation in 300 mOsm PBS pH 6.5, 37 °C, mean ± SD, read-out: Permeability across PermeaPad®; for Increase of permeability in PBS across PermeaPad®: pretreated with NaCl solutions of 50, 150, or 900 mOsm/kg compared to 300 mOsm/kg; for Change of permeability across PermeaPad® after hyper-osmotic pretreatment (in words): pretreatment with 900 mOsm/kg NaCl solution versus 300 mOsm, p < 0.05; for Papp, mean: supplement raw data, mean of replicates A-C
Procedure: (§1) During these studies, phosphate-buffered saline (PBS) was used as the acceptor medium and for the preparation of donor media for permeation experiments. The liposomes were allowed to form within the barrier by soaking the dry sandwich barrier (PermeaPad) in hypo-, iso-, or hyper-osmotic media and compared to the PBS by using NaCl solutions of different osmolalities. PBS was prepared by dissolving 35 mM sodium phosphate dibasic dihydrate and 75 mM sodium phosphate monobasic monohydrate in water. Then, the pH was adjusted to 6.5 by adding 0.1 M HCl or 0.1 M NaOH. Finally, the osmolality was measured on a semi-micro osmometer K-7400 from KNAUER Wissenschaftliche Geräte GmbH (Berlin, Germany), and NaCl was added to obtain an osmolality of 300 mOsm. Solutions of NaCl were prepared by dissolving NaCl in purified water to obtain osmolalities of 50, 150, 250, 300, 350, 450 and 900 mOsm.
(§2) The acyclovir solution was prepared by dissolving 1 mg/mL acyclovir in PBS. […] The stock of calcein was prepared by dissolving 2.8 g calcein in 30 mL water before adjusting the pH to 6.5 with 4 M NaOH (~20 mL), and the osmolality of the stock was adjusted to 300 mOsm with NaCl. […] The saturated celecoxib suspensions were prepared by suspending 1 mg/mL of celecoxib in PBS. The suspension was then sonicated for 10 min and left in the shaking water bath at 50 rpm and 37 °C for 40 h before starting the permeation experiments.
(§3) For the permeation experiments, we used the reversed Franz cell setup from Permegear (Hellertown, PA, USA) with the donor in the bottom chamber (8 mL) and the acceptor in the top chamber (2 mL). The two compartments were either separated by PermeaPad® or a sandwich consisting of two pieces of the support sheet representing the support layer of PermeaPad® (with no lipids). The barriers were kindly donated by InnoMe GmbH (Espelkamp, Germany). A cylindrical stir bar (2 mm diameter × 8 mm length) was spinning at 500 rpm at the bottom of the donor compartment. The temperature of the Franz cells was kept constant at 37 °C by a circulating water system.
(§4) Prior to the permeation experiments, the barrier was exposed to NaCl solutions ranging from 50 to 900 mOsm for 30 min by simply adding 2 mL of the NaCl solution to the top compartment. The NaCl solutions were removed from the top compartment right before initiating the permeation experiments.
(§5) For the permeation experiments, the system was kept assembled after the NaCl pretreatment, and the bottom compartment was filled with 8 mL of donor solution/suspension, followed by the addition of 2 mL PBS to the top compartment. […] All samples were replaced by the same volume of PBS to keep the acceptor volume constant and to maintain sink conditions. Before and after experiments, donor samples were withdrawn to keep track of the mass balance (see the Supplementary Materials).
(§6) The column temperature was 40 °C during measurement. […] All quantification was with a freshly prepared calibration curve in the relevant range.
(§7) The flux was determined by plotting the cumulative amount of a drug compound permeation (dQ) normalized to the permeation area (A) (1 cm^2) against time (dt), with the flux (J) equal to the slope. (1) J=dQ/A·dt
(§8) We assumed that the change in the donor concentration over the experiments was negligible. The apparent permeability (Papp) was equal to the flux normalized to the starting donor concentration (C0). (2) Papp=J/C0

[3] = Permeation across lipid-free support sheets (support layer of PermeaPad), reversed Franz cell setup; conditions: for Papp: 300 mOsm PBS pH 6.5, 37 °C, mean ± SD, read-out: Permeability across support layer; for Papp, mean: supplement raw data, Support sheet, 30 min pretreatment, mean of replicates A-C
Procedure: as §1, §2, §3, §4, §5, §6, §7, §8

[4] = pH 6.5, pretreatment with 50 mOsm/kg NaCl solution
[5] = pH 6.5, pretreatment with 300 mOsm/kg NaCl solution
[6] = pH 6.5, barrier pretreated 30 min with 50 mOsm/kg NaCl solution
[7] = pH 6.5, barrier pretreated 30 min with 300 mOsm/kg NaCl solution
[8] = PermeaPad, osmolality 50, 30 min pretreatment
[9] = PermeaPad, osmolality 150, 30 min pretreatment
[10] = PermeaPad, osmolality 300, 30 min pretreatment
[11] = PermeaPad, osmolality 450, 30 min pretreatment
[12] = PermeaPad, osmolality 900, 30 min pretreatment
[13] = pH 6.5, pretreated 30 min with 50 mOsm/kg NaCl solution
[14] = pH 6.5, pretreated 30 min with 300 mOsm/kg NaCl solution

Row | Permeation across lipid layer, fold higher with 50 mOsm/kg pretreatment [1] [fold] | Papp [1, 4] [nm/s] | Papp [1, 5] [nm/s] | Increase of apparent permeability across the PermeaPad® barrier upon hypo-osmotic pretreatment [2] | Papp [2, 6] [nm/s] | Papp [2, 7] [nm/s] | Increase of permeability in PBS across PermeaPad® [2] | Change of permeability across PermeaPad® after hyper-osmotic pretreatment (in words) [2] | Papp, mean [2, 8] | Papp, mean [2, 9] | Papp, mean [2, 10] | Papp, mean [2, 11] | Papp, mean [2, 12] | Papp [3, 13] [nm/s] | Papp [3, 14] [nm/s] | Papp, mean ([3]; osmolality 50) | Papp, mean ([3]; osmolality 300) | Compound | also measured
1 | 2.0 | 8 ± 0.7 | 4 ± 0.2 | approximately 2.0 fold | 6.1 ± 0.4 | 3.5 ± 0.1 | 1.5–2 fold | increased significantly | 0.6055 10-6 | 0.6047 10-6 | 0.3505 10-6 | 0.3884 10-6 | 0.5604 10-6 | 25.1 ± 3 | 28.4 ± 5.4 | 2.509 10-6 | 2.835 10-6 | O=C(O)CN(CC(=O)O)Cc1cc2c(cc1O)Oc1cc(O)c(CN(CC(=O)O)CC(=O)O)cc1C21OC(=O)c2ccccc21 [Calcein, calcein] | Difference in permeation across PermeaPad® between 2 and 30 min pretreatment ([2]; 50 and 300 mOsm/kg NaCl solutions, p > 0.05): no significant differences; Papp, mean ([2]; PermeaPad (2 min pretreatment), osmolality 50): 0.5524 10-6; Papp, mean ([2]; PermeaPad (2 min pretreatment), osmolality 300): 0.3418 10-6; Papp, mean ([2]; PermeaPad, osmolality 250, 30 min pretreatment): 0.3074 10-6; Papp, mean ([2]; PermeaPad, osmolality 350, 30 min pretreatment): 0.3633 10-6
2 | 1.7 | 47.1 ± 7.8 | 27.4 ± 3.8 | ~1.7 fold | 40.7 ± 6 | 25.2 ± 3.3 | 1.5–2 fold | increased significantly | 4.068 10-6 | 3.864 10-6 | 2.527 10-6 | 3.76 10-6 | 4.675 10-6 | 327 ± 18.7 | 332 ± 17.9 | 32.67 10-6 | 33.19 10-6 | Nc1nc2c(ncn2COCCO)c(=O)[nH]1 [Acyclovir, acyclovir] | 
3 |  | 342 ± 181 | 262 ± 112 |  | 180 ± 74.8 | 159 ± 49.9 |  |  | 17.95 10-6 | 12.5 10-6 | 15.92 10-6 | 16.62 10-6 | 17.85 10-6 | 463 ± 22.3 | 462 ± 27.4 | 46.3348 10-6 | 46.16 10-6 | Cc1ccc(-c2cc(C(F)(F)F)nn2-c2ccc(S(N)(=O)=O)cc2)cc1 [Celecoxib, celecoxib] | Change of permeability across PermeaPad® with different pretreatments (in words) ([2]; NaCl pretreatment solutions from 50 to 900 mOsm/kg compared to 300 mOsm/kg): no significant changes; Change of permeation across PermeaPad® upon hypo-osmotic pretreatment (in words) ([2]; hypo-osmotic pretreatment): remained unchanged
